Assay results from publication PMC5554537 (Frontiers in Pharmacology, 2017).
Where two headings read alike, the source gives them in different places.

Tests used:
[1] = set-up: method as in Anderson et al., 2014; conditions: ref Anderson et al., 2014; cited from earlier work
NIH-III mice = tested on: NIH-III mice
Text: SUPPLEMTENTAL TABLE 7. Mouse toxicity of SN30000 and M14: Histopathology […]
Male and female NIH-III mice aged 6-10 weeks were given a single i.p. dose of SN30000 (186, 248 […]
untreated control for each sex, fixed in 10% neutral buffered formalin at room temperature for 24-48 hr, transferred to 70% ethanol and subsequently paraffin embedded, sectioned and H&E stained for light microscopy . The following tissues/organs were examined: skin, testes, eyeball, brain, liver, lung, stomach, duodenum, heart, spleen, pancreas, colon, femur and joint (incl marrow), skeletal muscle (psoas) and kidney. Results are reported only for positive findings.

[2] = Reductive metabolism in liver S9 preparations; format: in vitro ADME, NIH-III mice; conditions: for Rate of reduction to M14: 20 μg/ml protein
Experimental: In vitro hepatic metabolism of SN30000 and M14 was studied using 9,000 g post-mitochondrial supernatants (S9) prepared from livers of female NIH-III mice. Metabolism at 37°C was measured by dilution of S9 to appropriate protein concentrations (measured by BCA protein assay) in sodium/potassium phosphate buffer (67 mM phosphate, pH 7.4) containing 5 mM MgCl2, 1 mM EDTA, 1 mM NADPH, 1 mM NADH and 150 μM test drug. The reaction was terminated by adding an equal volume of ice-cold MeOH and samples were analyzed by LC-MS/MS. Two methods were used to modify the oxygen concentration. Method 1: 96-well plates (reaction volume 0.1 mL/well) were incubated for 30 min on a Eppendorf Thermomixer C (Eppendorf AG, Hamburg, Germany) either under 21% O2 (oxia) or 95% N2/5% CO2 (anoxia) in an anaerobic chamber (Sheldon Manufacturing, Cornelius, OR, United States) as described previously ([Gu et al., 2010]). Method 2: glass vials containing 3 mL final volume were magnetically stirred continuously in a water bath under flowing 5% CO2 containing 0, 0.2, 2, or 20% O2 (certified gas mixtures from BOC Gasses NZ), as detailed previously ([Hicks et al., 2007]), and samples (0.1 mL) were withdrawn at intervals for analysis.
To address whether this reflects an oxygen-sensitive (one-electron reduction) or oxygen-insensitive (two-electron reduction) process, metabolism was compared in NIH-III mouse liver S9 preparations under 20% O2 or anoxia. […] Using low protein concentrations (20 μg/ml) to enable assessment of initial rates, reduction to M14 was similar for anoxic liver S9 preparations from male and female NIH-III mice (10.6 ± 0.2 and 9.2 ± 0.2 nmol/min/mg protein, respectively). […] The liver S9 intrinsic clearance, CLint, was calculated as Vmax/Km for M14 formation under anoxia and scaled to the whole liver based on the (unrealistic) assumption that the liver is entirely anoxic. This upper estimate of in vivo hepatic clearance was then predicted as previously described ([Gu et al., 2011b]) using the free fraction of SN30000 in mouse plasma determined by equilibrium dialysis (Supplementary Table 11).

Wistar rats = experiment: Rectal temperature and MTD in rats; format: in vivo; conditions: single i.v. dose of 90 mg/kg, preliminary
[3] = plasma
Experimental: SN30000, M14 and M18 dosing solutions were prepared fresh in normal saline, filtered through 0.45 μm Acrodisc filters (Pall Life Sciences, Port Washington, NY, United States), protected from light in amber vials, and used within 3 h. Doses are expressed as mg of free base equivalent for SN30000 and M14, and free acid in the case of M18. […] For evaluation of acute toxicity, mice were observed continuously for 3 h after dosing, and their activity rated on a lethargy score from 0 representing no change in activity to 5 representing animals that were moribund and required culling. For MTD studies, the animals were checked daily for clinical signs of toxicity and body weight change for 2 weeks. In some studies rectal temperature changes after dosing were measured using a BAT-12 digital microprobe thermometer (Physitemp Instruments, Clifton, NJ, United States) at the times specified in the figures. Blood samples were collected from mice at various times by cardiac puncture, seconds after cervical dislocation, into ice-cold tubes containing K2EDTA. These were placed on ice immediately after collection and centrifuged (3,000 g, 3 min) within 10 min to harvest plasma. Plasma and tissues were rapidly frozen in liquid nitrogen before storage at -80°C for subsequent bioanalysis.
Concentration-time data were analyzed by non-compartmental analysis using Phoenix WinNonlin (ver 6.4, Build 6.4.0768 Pharsight, United States); all AUC values were extrapolated to infinity using the linear trapezoidal rule. A compartmental model for plasma PK after dosing with SN30000 or M14 was fitted using Phoenix NLME v1.3 with random effects on the metabolite volumes of distribution, and temperature effects based on the observed body temperature at the last measurement time. Temperature effects were added or removed until there was no significant change in the log likelihood. Model fits were further assessed by visual inspection of the residuals and predicted PK.

HT29 tumor cells = tested on: HT29 tumor cells; set-up: method as in Hicks et al., 2010; conditions: stirred suspensions of HT29 tumor cells; ref Hicks et al., 2010; cited from earlier work

Structure (SMILES)	One-electron reduction potential, lower than SN30000 by [1]	Histopathology findings, Kidney (NIH-III mice; 186 mg/kg i.p., female, 3 examined)	Histopathology findings, Kidney (NIH-III mice; 248 mg/kg i.p., female, 2 examined)	Histopathology findings, Testes (NIH-III mice; 248 mg/kg i.p., male, 1 examined)	Histopathology findings, Kidney (NIH-III mice; 248 mg/kg i.p., male, 2 examined)	Histopathology findings, Kidney (NIH-III mice; 331 mg/kg i.p., male, 1 examined)	Rate of reduction to M14 ([2]; anoxic liver S9 from female mice)	Rate of reduction to M14 ([2]; anoxic liver S9 from male mice)	Vmax for formation of M14 ([2]; anoxic mouse liver S9)	Predicted hepatic clearance ([2]; dispersion model)	Km ([2]; female, NIH-III, liver S9 (9,000 g post-mitochondrial supernatant), pH 7.4, anoxic mouse liver S9, read-out: Apparent Km for formation of M14)	Predicted hepatic clearance ([2]; parallel tube model)	Predicted hepatic clearance ([2]; well-stirred model, from anoxic S9 CLint, liver assumed entirely anoxic)	Decrease in rectal temperature (Wistar rats)	Apparent Cl ([3]; i.p. SN30000 1.86 mg/kg)	Apparent Cl ([3]; i.p. SN30000 18.6 mg/kg)	Apparent Cl ([3]; i.p. SN30000 78.3 mg/kg)	Apparent Cl ([3]; i.p. SN30000 92.8 mg/kg)	Apparent Cl ([3]; i.p. SN30000 186 mg/kg)	O2 in solution for 50% inhibition of cytotoxicity (HT29 tumor cells)
[O-][n+]1nc(CCCN2CCOCC2)nc2cc3c(cc21)CCC3 [M14]	70 mV																			
[O-][n+]1nc(CCCN2CCOCC2)[n+]([O-])c2cc3c(cc21)CCC3 [SN30000, 3-(3-Morpholinopropyl)-7,8-dihydro-6H-indeno[5,6-e][1,2,4]triazine 1,4-dioxide]		Basophilic cortical tubules (2); karyomegaly in tubular epithelium (3); tubular epithelial necrosis (3)	Basophilic cortical tubules (2); karyomegaly in tubular epithelium (2); tubular epithelial necrosis (2)	Degeneration of germinal epithelium (1)	Basophilic cortical tubules (1); karyomegaly in tubular epithelium (1); tubular epithelial necrosis (1)	Basophilic cortical tubules (1); karyomegaly in tubular epithelium (1); tubular epithelial necrosis (1)	9.2 ± 0.2 nmol/min/mg protein	10.6 ± 0.2 nmol/min/mg protein	71 ± 2 nmol/min/mg protein	78.2 mL/min/kg	974 ± 71 µM	83.5 mL/min/kg	65.2 mL/min/kg	~2.5 °C	553 mL/min/kg	447 mL/min/kg	126 mL/min/kg	95 mL/min/kg	59.2 mL/min/kg	1.14 ± 0.24 µM
